Columns and labels:
[1] = Human microsomal stability assay; conditions: human liver microsomes, 3 µM, 80 min
Experimental: Microsomal stability assay was carried out as described previously. In brief, 10 x reduced nicotinamide adenine dinucleotide phosphate (NADPH)-regenerating system was freshly prepared by dissolving 37.2 mg glucose-6-phosphate (Sigma) in 1 mL of 100 mM potassium phosphate buffer, 39.8 mg nicotinamide adenine dinucleotide phosphate (NADP, Sigma) in 1 mL of potassium phosphate buffer, 11.5 U glucose-6-phosphate dehydrogenase (Thermo) in 1 mL of potassium phosphate buffer and 26.8 mg MgCl2.6H2O (Sigma) in 1 mL of distilled water. All these solutions were combined and kept on ice. […] After 5 min, 18 µL of NADPH-regenerating system was added to initiate reaction. Immediately after adding the NADPH regenerating system, 50 µL, 0 min time point sample was taken and quenched with equal volume of ice-cold methanol. Similarly further samples were taken at 10 min, 30 min, 60 min, 90 min and 120 min. Samples were centrifuged at 10,000 g at 4 °C for 10 min. […] After incubating the reaction mix at 37 °C for 5 min, 36 µL of NADPH regenerating system was added to initiate the reaction. 50 µL samples were taken at 0 min, 2.5 min, 5 min, 10 min, 20 min, 40 min and 80 min and reactions were quenched by adding equal amount of ice-cold acetonitrile and kept on ice.

[2] = [19F]FDT in vivo stability in mice (plasma/urine LC-MS, 19F NMR); conditions: mice (n = 5), LC-MS and 19F-NMR
Experimental: For initial in vivo study, six white mice, CD1, male, weighing between 22–26 grams, were used. Two concentrations of [^19F]FDT (500 μM and 50 μM, final concentration in the blood) were injected into the mice, through the tail vein injection. Prior to injection, each mouse was pre-bled (100 μL) and control samples were obtained. […] Samples were spun at 13000 rpm (15871 x g) for 10 min and the supernatant (plasma) was used for further analysis. 200 μL of plasma sample was transferred into fresh 1.5 mL Eppendorf tube and diluted with equal amount of acetonitrile to precipitate out blood plasma protein and other macromolecules. Samples were further spun at 13000 rpm (15871 x g) for 5 min.
In order to determine [^19F]FDT metabolism in vivo, we assessed concentration vs time in two mammalian species: common marmosets and C57BL/6 mice. For marmosets weighing between 290.3–340.3 g, 20 mg of sterile-filtered FDT in PBS was injected IV (n = 3) and ~200 μL blood samples were taken from the femoral vein at 0 min, 5 min, 30 min, 60 min, 90 min and 180 min post injection. […]
A, B) 20 mg [19F]FDT was injected into marmosets (A, n=3 biological replicates, each measured in duplicate) and 5 mg FDT injected into mice (B, n=5 biological replicates, each measured in triplicate). […]
[19F]FDG was detected, consistent with the only low levels of metabolism seen with [18F]FDT in rabbits (see Figure S3G). […]

[3] = tested on: mammalian (porcine) trehalase; assay: Trehalase degradation assay; assay type: in vitro ADME; conditions: 0.3 units/mL trehalase, 10 mM substrate
Experimental: The metabolic stabilities of the remaining three analogs, [^18F]FDT, 4-epi-[^18F]FDT and 6-[^18F]FDT were tested. Although, human trehalose-degrading trehalase activity is low and restricted primarily to the brush-border of the kidney where it is thought to be GPI-anchored[28],[32], it can be elevated in some diseases, therefore we also tested degradation of the analogs in vitro using high concentrations of mammalian (porcine) trehalase (0.3 units/mL, 10 mM substrate, Fig. S5). […]
Figure S5. Trehalase Assays.
Substrates were prepared to a final concentration of 10 mM in 0.05 M citric acid, pH 5.7 including trehalase stock solution (0.3 units/mL). The reaction mixture was incubated at 37 °C for 60 minutes, and then quenched with an equal volume of 0.1 M Tris, pH 7.5. Released glucose was measured with glucose assay kit (see Methods).

OC[C@H]1O[C@H](O[C@H]2O[C@H](CO)[C@@H](O)[C@H](O)[C@H]2F)[C@H](O)[C@@H](O)[C@@H]1O [[^19F]FDT]
% remaining [1]: > 50%
degradation in plasma / in vivo [2]: no detectable degradation
degradation in plasma / in vivo ([2]; listed as [19F]FDT): no degradation
degradation by trehalase [3]: little or no degradation
degradation by trehalase (Figure S5, released glucose) ([3]; pH 5.7, 37 °C, 60 minutes): 0
